Series [1] can be described thus: Pharmacokinetics of noribogaine in healthy male volunteers (plasma, urine, LCMSMS). The following applies: for AUC0-216 / AUC0-∞ / Cmax / Tmax / t1/2: mean (SD), n = 6.
For a further series, the system named is Sprague-Dawley rat. Briefly: Single dose toxicity in rats. Format: in vivo. On the procedure:
The objective of this study was to determine the toxicity and toxicokinetic profile of noribogaine HCl following a single oral (gavage) administration in the Sprague-Dawley rat. A single dose of 100, 300 and 800 mg/kg (achieved with doses of 400 mg/kg 3 h+/−30 min apart because of the limitations of maximum dose formulation concentration). Five male rats/group were used. […] Hypoactivity, vocalization, chewing movements, changes in respiration/posture, salivation, stimuli sensitivity, tremors, twitches and penile erection occurred prior to death. […] The NOAEL was determined to be 100 mg/kg.

For a further series, the system named is Sprague-Dawley rats. Briefly: Fourteen day repeat dose toxicity in rats. The format is in vivo, rat. As for the experimental part:
This study was conducted to evaluate the toxicity profile of noribogaine-HCl following oral (gavage) administration to the rat for 14 days following Table 2 below:
Male and female Sprague-Dawley rats, 10/sex/group, were administered 0, 25, 50 or 100 mg/kg noribogaine HCl daily by single oral gavage for 14 days. An additional 5 rats/sex/group in the 0 (control) and 100 mg/kg groups were retained for a 28 day recovery period during which no drug was administered. Six rats/sex/group (3 rats/sex controls) were similarly dosed and sampled on study days 1 and 14 for analysis of noribogaine-HCl concentrations in the blood.

Another series relates to dogs. Briefly: Fourteen day repeat dose toxicity in dogs. The format is in vivo, dog. As for the experimental part: The objective of this study was to determine the toxicity profile of noribogaine HCl given following oral (gavage) administration to dogs for 14 days according to the following Table 3 below:
Noribogaine HCl was administered to groups of 4 male and 4 female dogs by single oral gavage daily for 14 days at doses of 0, 0.5, 1.0 and 5.0 mg/kg/day. An additional group of 4 male and 4 female dogs received either the vehicle control or 5.0 mg/kg/day for 14 days and were held for an additional 28 days after cessation of dosing to assess recovery from any potential drug-induced changes. The study was conducted under GLP guidelines and included comprehensive examinations of clinical signs, body weight, clinical pathology parameters, ophthalmologic examinations, ECG recordings and analyses of plasma for bioanalytical measurement of drug levels at appropriate intervals during the study. At the termination of the dosing phase and at the termination of the recovery phase, all dogs were subjected to a complete post-mortem examination including gross examination of major organs and histologic examination of an extensive list of tissues. Additional sections of brain were obtained from cerebrum, cerebellus, brain stem and spinal cord and examined histologically to evaluate potential effects on brain histopathology. In addition, these sections were examined with immunohistochemical stains for GFAP for evidence of gliosis and Calbindin for a more comprehensive examination of cerebellar Purkinje cells.

The nature of series [2]: Human pharmacokinetic study, single oral tablet, fasting healthy volunteers (serum). The following applies: 3 mg, 10 mg, 30 mg or 60 mg single oral tablet. Format: in vivo. On the procedure:
In double blind studies, fasting healthy volunteers (6 per cohort) were treated once orally with a tablet of noribogaine HCl. In escalating cohorts, the volunteers received 3 mg, 10 mg, 30 mg or 60 mg noribogaine.

[3] abbreviates: glucuronide in plasma after 30 mg noribogaine.
The mark [4] stands for this setting: glucuronide in plasma after 60 mg noribogaine.

`CC[C@H]1C[C@@H]2C[C@H]3c4[nH]c5ccc(OC6OC(C(=O)O)C(O)C(O)C6O)cc5c4CCN(C2)[C@@H]13` (stereo partly drawn) [Noribogaine glucuronide, noribogaine glucuronide]: in series [1] (30 mg and 60 mg noribogaine dose groups, plasma), the “time by which noribogaine glucuronide was detected in all subjects” value is not above 0.75 h. Moreover, the “proportion of noribogaine glucuronide Cmax and AUC relative to noribogaine” value in series [1] (both dose groups (30 mg, 60 mg)) is listed as 3-4%. Besides, in series [1] (setting [3]), the AUC0-216 is given as 25.7 (9.1) ng · hr/ml, the “AUC0-∞” value is listed as 25.8 (9.3) ng · hr/ml, the Cmax is given as 1.8 (0.6) ng/ml and the Tmax is listed as 3.0 (0.6) hr. The t1/2 in series [1] (setting [3]) was 20.6 (4.9) hr. In series [1] (setting [4]), the AUC0-216 is reported as 65.0 (21.5) ng · hr/ml, the “AUC0-∞” value was 67.1 (21.9) ng · hr/ml, the Cmax is 4.1 (1.2) ng/ml and the Tmax is 3.8 (1.2) hr. In series [1] (setting [4]), the t1/2 was 23.1 (3.0) hr. Also, the “time of peak concentrations after noribogaine dosing” value in series [1] (glucuronide, 30 mg and 60 mg dose groups, plasma) was 3 to 4 h. For the same compound, the mean half-life in series [1] (plasma noribogaine glucuronide, 30 mg and 60 mg dose groups) lay within 21 to 23 h.
The NOAEL is the highest tested level that showed no adverse finding. Turning to `CC[C@@H]1C[C@H]2CC3c4[nH]c5ccc(O)cc5c4CCN(C2)C31.Cl` [noribogaine HCl], the clinical signs result was “did not show any treatment related signs” in the series on Sprague-Dawley rat (100 mg/kg single oral); “Hypoactivity, vocalization, salivation, stimuli sensitivity, loss of limb function and lying on the cage floor” with Sprague-Dawley rat (300 mg/kg single oral, persisted until Day 2 in 3/5 rats). For the same compound, in the series with Sprague-Dawley rat (800 mg/kg oral gavage (2 x 400 mg/kg 3 h apart), male rats), the mortality result was “Mortality occurred in all male rats”. For the same compound, the no-observed-adverse-effect level (NOAEL) in the series on Sprague-Dawley rat (single oral dose, male rats) turned out to be 100 mg/kg; in the series with Sprague-Dawley rats (14 days oral, highest dose tested), 100 mg/kg; in the series on dogs (14 days oral, based on lacrimal gland changes), 1 mg/kg/day. Further, the body weight change is on record as −2.6% in the series with Sprague-Dawley rats (100 mg/kg, females) and −5.5% with Sprague-Dawley rats (100 mg/kg, males). Besides, the food consumption change in the series on Sprague-Dawley rats (100 mg/kg, males and females) is −4.7%. For the same compound, the “effects on mortality, clinical signs, ophthalmoscopy, hematology, coagulation, clinical chemistry, urinalysis, gross necropsy, histopathology” value with Sprague-Dawley rats (25, 50 or 100 mg/kg daily oral gavage for 14 days) was “no test article-related effects”. Moreover, the “brain sections stained for GFAP or Calbindin” value with Sprague-Dawley rats (14 days) is on record as “No treatment-related differences in the brain”. In the series with Sprague-Dawley rats (mid- and high dose groups, considered incidental), the liver weight result is listed as “Minor increases in liver weight”. Also, the “lacrimal gland changes (target tissue)” value in the series with dogs (5 mg/kg/day for 14 days) was “slight to moderate atrophy and degeneration of the acinar cells”. The “lacrimal gland change after recovery” value with dogs (5 mg/kg/day, 28 days off drug) was “clear evidence of regeneration of this lacrimal gland change”. Moreover, in the series on dogs (0.5, 1.0 and 5.0 mg/kg/day oral for 14 days, dosing or recovery phase), the “clinical observations, body weights, clinical pathology, ophthalmology, ECG, gross lesions” value was “No evidence of adverse effect”. Moreover, in series [2], the “adverse effects in the trial” value was “no clinically relevant adverse effects”.

Source of the values: patent US20160038505A1, “METHODS AND COMPOSITIONS FOR TREATING IMPULSE CONTROL DISORDER, ANXIETY-RELATED DISORDERS, VIOLENCE AND/OR ANGER, OR REGULATING FOOD INTAKE” (priority 2014, published 2016).
